Assay results published in ChEMBL document CHEMBL4613325, “Design of Development Candidate eFT226, a First in Class Inhibitor of Eukaryotic Initiation Factor 4A RNA Helicase” (J Med Chem, 2020).

Key:
MDA-MB-231 = assay: Antiproliferative activity against human MDA-MB-231 cells assessed as reduction in cell proliferation incubated for 72 hrs by CellTiter-Glo reagent based assay; type: functional; conditions: MDA-MB-231, 72 h
[1] = Apparent permeability from apical to basolateral side in human Caco2 cells at 10 uM by LC/MS/MS analysis
[2] = Efflux ratio in human Caco2 cells at 10 uM by LC/MS/MS analysis
[3] = Stability in rat liver microsomes assessed as parent compound remaining at 1 uM pre-incubated for 10 mins before NADPH addition and measured after 30 mins by LC/MS/MS analysis; type: ADME, Microsome; conditions: read-out: Stability
[4] = Stability in human liver microsomes assessed as parent compound remaining at 1 uM pre-incubated for 10 mins before NADPH addition and measured after 30 mins by LC/MS/MS analysis; type: ADME, Microsome; conditions: read-out: Stability
hERG (KCNH2) = hERG (KCNH2) (Homo sapiens, UniProt Q12809); assay: Inhibition of human ERG at 10 uM by patch-clamp assay relative to control
hERG (KCNH2), sequence (Q12809 whole entry): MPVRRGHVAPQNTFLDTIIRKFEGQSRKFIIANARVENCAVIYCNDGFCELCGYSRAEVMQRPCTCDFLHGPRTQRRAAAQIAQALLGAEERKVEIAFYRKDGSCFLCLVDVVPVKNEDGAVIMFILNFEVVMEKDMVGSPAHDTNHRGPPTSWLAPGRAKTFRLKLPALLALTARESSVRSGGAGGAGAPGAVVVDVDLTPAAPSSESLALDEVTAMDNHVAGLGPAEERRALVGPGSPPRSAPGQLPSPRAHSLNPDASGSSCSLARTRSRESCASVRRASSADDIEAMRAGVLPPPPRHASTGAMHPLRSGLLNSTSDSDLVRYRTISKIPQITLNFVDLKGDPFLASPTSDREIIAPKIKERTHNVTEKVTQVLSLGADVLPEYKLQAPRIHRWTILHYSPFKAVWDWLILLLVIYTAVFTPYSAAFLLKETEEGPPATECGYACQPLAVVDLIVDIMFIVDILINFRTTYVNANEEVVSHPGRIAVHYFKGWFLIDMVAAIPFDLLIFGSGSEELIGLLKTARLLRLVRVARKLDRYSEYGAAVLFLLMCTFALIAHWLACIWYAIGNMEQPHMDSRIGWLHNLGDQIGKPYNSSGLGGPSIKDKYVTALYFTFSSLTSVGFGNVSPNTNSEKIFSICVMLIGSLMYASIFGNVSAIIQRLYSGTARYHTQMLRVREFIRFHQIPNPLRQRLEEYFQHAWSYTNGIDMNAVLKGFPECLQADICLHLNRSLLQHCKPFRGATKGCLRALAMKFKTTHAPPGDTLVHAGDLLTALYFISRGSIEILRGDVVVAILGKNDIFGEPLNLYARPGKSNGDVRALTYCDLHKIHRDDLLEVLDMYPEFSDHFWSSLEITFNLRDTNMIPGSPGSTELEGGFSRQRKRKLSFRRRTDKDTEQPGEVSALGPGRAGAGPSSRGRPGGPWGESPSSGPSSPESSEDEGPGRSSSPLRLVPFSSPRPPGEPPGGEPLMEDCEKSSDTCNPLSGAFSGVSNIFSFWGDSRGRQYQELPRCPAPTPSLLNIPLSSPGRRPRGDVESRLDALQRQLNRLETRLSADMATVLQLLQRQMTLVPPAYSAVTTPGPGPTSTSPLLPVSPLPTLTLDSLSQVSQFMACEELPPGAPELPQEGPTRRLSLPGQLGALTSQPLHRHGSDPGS

Compound	IC50 (MDA-MB-231)	remaining at 0.5 h, 1 µM [3]	remaining at 0.5 h, 1 µM [4]	other results
COc1cncc2c1[C@]1(O)[C@H](O)[C@H](CN(C)CC(F)(F)F)[C@@H](c3ccccc3)[C@]1(c1ccc(C#N)cc1)O2	196 nM	< 1%	< 1%	Papp A→B at 10 µM ([1]; Caco-2): 7.1 ×10⁻⁶ cm/s; efflux ratio at 10 µM ([2]; Caco-2): 1.3
COc1cncc2c1[C@]1(O)[C@H](O)[C@H](CCN(C)C)[C@@H](c3ccccc3)[C@]1(c1ccc(C#N)cc1)O2 (racemic)	143 nM	77%	75%	Papp A→B at 10 µM ([1]; Caco-2): 0.1 ×10⁻⁶ cm/s; efflux ratio at 10 µM ([2]; Caco-2): 27; inhibition at 10 µM (hERG (KCNH2)): 11%
COc1cncc2c1[C@]1(O)[C@H](O)[C@H](CN)[C@@H](c3ccccc3)[C@]1(c1ccc(C#N)cc1)O2 (racemic)	211 nM	104%	106%	Papp A→B at 10 µM ([1]; Caco-2): 0.11 ×10⁻⁶ cm/s; efflux ratio at 10 µM ([2]; Caco-2): 4; inhibition at 10 µM (hERG (KCNH2)): 11%
CN(C)C(=O)[C@H]1[C@@H](O)[C@@]2(O)c3ncc(Cl)cc3O[C@@]2(c2ccc(OC(F)(F)F)cc2)[C@@H]1c1ccccc1	603 nM			
COc1cncc2c1[C@]1(O)[C@H](O)[C@H](CN3CC4(COC4)C3)[C@@H](c3ccccc3)[C@]1(c1ccc(C#N)cc1)O2	124 nM	74%	81%	Papp A→B at 10 µM ([1]; Caco-2): 0.1 ×10⁻⁶ cm/s; efflux ratio at 10 µM ([2]; Caco-2): 41
CN(C)C(=O)[C@H]1[C@@H](O)[C@@]2(O)c3ncc(Cl)cc3O[C@@]2(c2ccc(C(F)F)cc2)[C@@H]1c1ccccc1	241 nM			
COc1ccc([C@@]23Oc4cc(Cl)ccc4[C@]2(O)[C@H](O)[C@H](C(=O)N(C)C)[C@H]3c2ccccc2)cc1 (racemic)	52 nM			
COc1ccc([C@@]23Oc4cc(C#N)cnc4[C@]2(O)[C@H](O)[C@H](C(=O)N(C)C)[C@H]3c2ccccc2)cc1	601 nM			
N#Cc1ccc([C@@]23Oc4cc(Cl)cnc4[C@]2(O)[C@H](O)[C@H](CO)[C@H]3c2ccccc2)cc1 (racemic)	1460 nM			
COc1ccc2c(c1)O[C@@]1(c3ccc(C#N)cc3)[C@H](c3ccccc3)[C@@H](C(=O)N(C)C)[C@@H](O)[C@@]21O (racemic)	68 nM			
COc1cncc2c1[C@]1(O)[C@H](O)[C@H](CN(C)C)[C@@H](c3ccccc3)[C@]1(c1ccc(C#N)cc1)O2 (stereo in doubt; (+)-37)		72%	75%	Papp ([1]; caco-2, 10 µM, 10 µM): 0.2 ×10⁻⁶ cm/s; Ratio ([2]; caco-2, 10 µM, 10 µM): 23; inhibition at 10 µM (hERG (KCNH2)): 11%
CNS(=O)(=O)[C@H]1[C@@H](O)[C@@]2(O)c3ncc(Cl)cc3O[C@@]2(c2ccc(C#N)cc2)[C@@H]1c1ccccc1 (racemic)	2040 nM			
COc1ccc([C@@]23Oc4cc(OC)ccc4[C@]2(O)[C@H](O)[C@H](C(=O)N(C)C)[C@H]3c2ccccc2)cc1 (racemic)	198 nM			
COc1ccc2c(n1)O[C@@]1(c3ccc(C#N)cc3)[C@H](c3ccccc3)[C@@H](C(=O)N(C)C)[C@@H](O)[C@@]21O (racemic)	> 1000 nM			
COc1cncc2c1[C@]1(O)[C@H](O)[C@H](CN3CCOCC3)[C@@H](c3ccccc3)[C@]1(c1ccc(C#N)cc1)O2	121 nM	52%	40%	Papp A→B at 10 µM ([1]; Caco-2, Papp): 1.5 ×10⁻⁶ cm/s; efflux ratio at 10 µM ([2]; Caco-2, Ratio): 5.3; inhibition at 10 µM (hERG (KCNH2)): < 10%
COc1cncc2c1[C@]1(O)[C@H](O)[C@H](CN(C)CC(F)F)[C@@H](c3ccccc3)[C@]1(c1ccc(C#N)cc1)O2	250 nM	< 1%	1%	Papp A→B at 10 µM ([1]; Caco-2): 2.6 ×10⁻⁶ cm/s; efflux ratio at 10 µM ([2]; Caco-2): 3.2; inhibition at 10 µM (hERG (KCNH2)): 11%
N#Cc1ccc([C@@]23Oc4cc(Cl)cnc4[C@]2(O)[C@H](O)[C@H](C(N)=O)[C@H]3c2ccccc2)cc1	90 nM			Papp A→B at 10 µM ([1]; Caco-2): 0.5 ×10⁻⁶ cm/s
COc1cncc2c1[C@]1(O)[C@H](O)[C@H](CNC(C)(C)C)[C@@H](c3ccccc3)[C@]1(c1ccc(C#N)cc1)O2	301 nM	92%	99%	inhibition at 10 µM (hERG (KCNH2)): < 10%
COc1ccc([C@@]23Oc4cc(Cl)cnc4[C@]2(O)[C@H](O)[C@H](C(=O)N(C)C)[C@H]3c2ccccc2)cc1	283 nM			
CN(C)C(=O)[C@H]1[C@@H](O)[C@@]2(O)c3ncc(Cl)cc3O[C@@]2(c2ccc(F)cc2)[C@@H]1c1ccccc1	> 1000 nM			
CN(C)C(=O)[C@H]1[C@@H](O)[C@@]2(O)c3ncc(Cl)cc3O[C@@]2(c2ccc(Cl)cc2)[C@@H]1c1ccccc1	160 nM			
COc1cncc2c1[C@]1(O)[C@H](O)[C@H](CN3CC(F)(F)C3)[C@@H](c3ccccc3)[C@]1(c1ccc(C#N)cc1)O2	208 nM			Papp A→B at 10 µM ([1]; Caco-2): 1.9 ×10⁻⁶ cm/s; efflux ratio at 10 µM ([2]; Caco-2): 5.7; inhibition at 10 µM (hERG (KCNH2)): < 10%
COc1cncc2c1[C@]1(O)[C@H](O)[C@H](CN3CCCCC3)[C@@H](c3ccccc3)[C@]1(c1ccc(C#N)cc1)O2	50 nM	56%	81%	
COc1cncc2c1[C@]1(O)[C@H](O)[C@H](CN3[C@@H]4CC[C@H]3COC4)[C@@H](c3ccccc3)[C@]1(c1ccc(C#N)cc1)O2	101 nM	51%	51%	Papp A→B at 10 µM ([1]; Caco-2): 1.9 ×10⁻⁶ cm/s; efflux ratio at 10 µM ([2]; Caco-2): 5.3

Compound	IC50 (MDA-MB-231)	remaining at 0.5 h, 1 µM [3]	remaining at 0.5 h, 1 µM [4]	other results
CNC(=O)[C@H]1[C@@H](O)[C@@]2(O)c3ncc(Cl)cc3O[C@@]2(c2ccc(C#N)cc2)[C@@H]1c1ccccc1	32 nM			Papp A→B at 10 µM ([1]; Caco-2, Papp): 0.5 ×10⁻⁶ cm/s
COc1ccc([C@@]23Oc4cc(OC)cnc4[C@]2(O)[C@H](O)[C@H](C(=O)N(C)C)[C@H]3c2ccccc2)cc1 (racemic)	990 nM			
COc1cncc2c1[C@]1(O)[C@H](O)[C@H](CN(C)C(C)(C)C)[C@@H](c3ccccc3)[C@]1(c1ccc(C#N)cc1)O2	140 nM	77%	61%	Papp A→B at 10 µM ([1]; Caco-2): 0.1 ×10⁻⁶ cm/s; efflux ratio at 10 µM ([2]; Caco-2): 57; inhibition at 10 µM (hERG (KCNH2)): 16%
Cc1ccc([C@@]23Oc4cc(Cl)cnc4[C@]2(O)[C@H](O)[C@H](C(=O)N(C)C)[C@H]3c2ccccc2)cc1	143 nM			
CN(C)C(=O)[C@H]1[C@@H](O)[C@@]2(O)c3ncc(Cl)cc3O[C@@]2(c2ccc(C(F)(F)F)cc2)[C@@H]1c1ccccc1	320 nM			
CN(C)C(=O)[C@H]1[C@@H](O)[C@@]2(O)c3ccc(Cl)cc3O[C@@]2(c2ccc(C#N)cc2)[C@@H]1c1ccccc1 (racemic)	19 nM			
CN(C)C(=O)[C@H]1[C@@H](O)[C@@]2(O)c3ncc(Cl)cc3O[C@@]2(c2ccc(S(C)(=O)=O)cc2)[C@@H]1c1ccccc1	> 1000 nM			
COc1ccc([C@@]23Oc4cc(C#N)ccc4[C@]2(O)[C@H](O)[C@H](C(=O)N(C)C)[C@H]3c2ccccc2)cc1 (racemic)	38 nM			
CN(C)C(=O)[C@H]1[C@@H](O)[C@@]2(O)c3ncc(Cl)cc3O[C@@]2(c2ccc(C#N)cc2)[C@@H]1c1ccccc1	87 nM			Papp A→B at 10 µM ([1]; Caco-2): 1.8 ×10⁻⁶ cm/s
CS(=O)(=O)[C@H]1[C@@H](O)[C@@]2(O)c3ncc(Cl)cc3O[C@@]2(c2ccc(C#N)cc2)[C@@H]1c1ccccc1	3020 nM			
CN(C)C(=O)[C@H]1[C@@H](O)[C@@]2(O)c3ccc(C#N)cc3O[C@@]2(c2ccc(C#N)cc2)[C@@H]1c1ccccc1 (racemic)	26 nM			
COc1cncc2c1[C@]1(O)[C@H](O)[C@H](CN3CCC(F)(F)CC3)[C@@H](c3ccccc3)[C@]1(c1ccc(C#N)cc1)O2	158 nM	42%	45%	Papp A→B at 10 µM ([1]; Caco-2): 4.8 ×10⁻⁶ cm/s; efflux ratio at 10 µM ([2]; Caco-2): 1.7; inhibition at 10 µM (hERG (KCNH2)): 30%
CNC[C@H]1[C@@H](O)[C@@]2(O)c3c(OC)cncc3O[C@@]2(c2ccc(C#N)cc2)[C@@H]1c1ccccc1 (racemic)	482 nM	90%	98%	Papp A→B at 10 µM ([1]; Caco-2, Papp): 0.3 ×10⁻⁶ cm/s; efflux ratio at 10 µM ([2]; Caco-2, Ratio): 3.9; inhibition at 10 µM (hERG (KCNH2)): < 10%
COc1cnc2c(c1)O[C@@]1(c3ccc(C#N)cc3)[C@H](c3ccccc3)[C@@H](C(=O)N(C)C)[C@@H](O)[C@@]21O	159 nM			
COc1nccc2c1[C@]1(O)[C@H](O)[C@H](C(=O)N(C)C)[C@@H](c3ccccc3)[C@]1(c1ccc(C#N)cc1)O2 (racemic)	314 nM			
N#Cc1ccc([C@@]23Oc4cc(Cl)cnc4[C@]2(O)[C@H](O)[C@H](c2ncco2)[C@H]3c2ccccc2)cc1 (racemic)	236 nM			
CN(C)C(=O)[C@H]1[C@@H](O)[C@@]2(O)c3ncc(C#N)cc3O[C@@]2(c2ccc(C#N)cc2)[C@@H]1c1ccccc1	385 nM			
N#Cc1ccc([C@@]23Oc4cc(Cl)cnc4[C@]2(O)[C@H](O)C[C@H]3c2ccccc2)cc1 (racemic)	670 nM			
CN(C)C(=O)[C@H]1[C@@H](O)[C@@]2(O)c3cnc(C#N)cc3O[C@@]2(c2ccc(C#N)cc2)[C@@H]1c1ccccc1	308 nM			
CN(C)C[C@H]1[C@@H](O)[C@@]2(O)c3ncc(Cl)cc3O[C@@]2(c2ccc(C#N)cc2)[C@@H]1c1ccccc1	239 nM			
COc1ccc([C@@]23Oc4cc(OC)cc(OC)c4[C@]2(O)[C@H](O)[C@H](C(=O)N(C)C)[C@H]3c2ccccc2)cc1 [ROCAGLAMIDE]	20 nM			
CN(C)S(=O)(=O)[C@H]1[C@@H](O)[C@@]2(O)c3ncc(Cl)cc3O[C@@]2(c2ccc(C#N)cc2)[C@@H]1c1ccccc1 (racemic)	304 nM			
COc1cncc2c1[C@]1(O)[C@H](O)[C@H](CN3[C@@H]4CCC[C@H]3CC4)[C@@H](c3ccccc3)[C@]1(c1ccc(C#N)cc1)O2	143 nM	68%	62%	Papp A→B at 10 µM ([1]; Caco-2): 0.5 ×10⁻⁶ cm/s; efflux ratio at 10 µM ([2]; Caco-2): 35
CCN(CC)C[C@H]1[C@@H](O)[C@@]2(O)c3c(OC)cncc3O[C@@]2(c2ccc(C#N)cc2)[C@@H]1c1ccccc1	62 nM	76%	73%	Papp A→B at 10 µM ([1]; Caco-2): 0.3 ×10⁻⁶ cm/s; efflux ratio at 10 µM ([2]; Caco-2): 35; inhibition at 10 µM (hERG (KCNH2)): 40%
